Test results taken from patent US9695154B2, “Heteroaryl inhibitors of sumo activating enzyme” (MILLENNIUM PHARMACEUTICALS, INC., priority 2013, dated 2017).

Target: T1, recombinant human SAE enzyme (Homo sapiens, UniProt Q9UBT2)
T1 sequence (Q9UBT2 1-640): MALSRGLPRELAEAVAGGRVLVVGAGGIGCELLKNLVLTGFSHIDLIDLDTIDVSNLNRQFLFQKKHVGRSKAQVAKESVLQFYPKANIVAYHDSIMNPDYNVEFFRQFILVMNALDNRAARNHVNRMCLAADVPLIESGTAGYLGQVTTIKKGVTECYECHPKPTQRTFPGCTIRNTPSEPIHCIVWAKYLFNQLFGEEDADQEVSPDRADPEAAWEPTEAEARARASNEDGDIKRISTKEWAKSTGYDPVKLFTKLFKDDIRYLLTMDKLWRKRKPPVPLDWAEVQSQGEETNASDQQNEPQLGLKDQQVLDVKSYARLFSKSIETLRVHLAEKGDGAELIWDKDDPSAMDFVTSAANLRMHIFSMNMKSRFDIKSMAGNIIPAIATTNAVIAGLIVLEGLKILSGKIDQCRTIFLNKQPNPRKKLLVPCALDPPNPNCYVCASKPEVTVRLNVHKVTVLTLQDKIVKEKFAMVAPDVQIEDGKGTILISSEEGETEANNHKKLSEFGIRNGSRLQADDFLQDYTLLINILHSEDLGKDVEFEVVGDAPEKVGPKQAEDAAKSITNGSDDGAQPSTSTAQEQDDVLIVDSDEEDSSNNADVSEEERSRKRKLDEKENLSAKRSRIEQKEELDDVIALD
T1 sequence (Q9UBE0 1-346 partner): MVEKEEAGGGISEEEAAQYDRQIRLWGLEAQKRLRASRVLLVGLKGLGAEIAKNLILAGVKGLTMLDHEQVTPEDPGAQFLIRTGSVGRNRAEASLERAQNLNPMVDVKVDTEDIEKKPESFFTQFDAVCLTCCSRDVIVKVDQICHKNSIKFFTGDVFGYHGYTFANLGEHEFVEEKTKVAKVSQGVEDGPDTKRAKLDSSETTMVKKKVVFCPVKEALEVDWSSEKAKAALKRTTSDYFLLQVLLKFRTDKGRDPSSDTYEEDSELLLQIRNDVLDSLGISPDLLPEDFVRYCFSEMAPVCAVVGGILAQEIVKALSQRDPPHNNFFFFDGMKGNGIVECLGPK
Test: SAE HTRF Enzyme Assay
Format: biochemical
Settings: for IC50: class symbols A-C; for inhibition at 0.111 µM / Percent Inhibition: compound concentration 0.111 μM; for inhibition at 0.111 µM: read-out: Percent Inhibition; for Percent Inhibition: 0.111 µM
Method: The SAE enzymatic reaction totals 50 μl and contains 50 mM HEPES Hemisodium (pH 7.5), 0.05% BSA, 5 mM MgCl2, 0.5 μM ATP, 250 μM GSH, 0.01 μM Ubc9-GST, 0.125 μM Sumo-Flag and 0.11 nM recombinant human SAE enzyme. The enzymatic reaction mixture with and without inhibitor, Is incubated at 24° C. for 105 min in a 384-well plate before termination with […] of Stop/Detection buffer (0.1M HEPES Hemisodium pH 7.5, 0.05% Tween20, 20 mM EDTA, 410 mM KF, 0.53 nM Europium-Cryptate labeled monoclonal anti-Flag M2 Antibody (CisBio International) and 8.125 μg/ml PHYCOLINK goat anti-GST allophycocyanin (XL-APC) antibody (Prozyme)). After incubation for 2 hours at 24° C., quantification of FRET is performed on the Pherostar™ (BMG Labtech). Percentage inhibition values at a single concentration or enzyme inhibition (IC50) values are determined from those curves. One skilled in the art will appreciate that the values generated either as percentage inhibition at a single concentration or IC50 values are subject to experimental variation.

| SMILES | IC50 | inhibition at 0.111 µM | Percent Inhibition |
| --- | --- | --- | --- |
| C=C[S+]([O-])c1cccc(Cn2ccc(C(=O)c3cncnc3N[C@@H]3C[C@H](COS(N)(=O)=O)[C@@H](O)[C@H]3O)n2)c1 (mixture of isomers) [Compound I-74, [(1R,2R,3S,4R)-2,3-dihydroxy-4-{[5-({1-[3-((R)-vinylsulfinyl)benzyl]-1H-pyrazol-3-yl}carbonyl)pyrimidin-4-yl]amino}cyclopentyl]methyl sulfamate and [(1R,2R,3S,4R)-2,3-dihydroxy-4-{[5-({1-[3-((S)-vinylsulfinyl)benzyl]-1H-pyrazol-3-yl}carbonyl)pyrimidin-4-yl]amino}cyclopentyl]methyl sulfamate] | < 10 nM | 92% |  |
| CC1(C)CCC(Cn2ccc(C(=O)c3cncnc3N[C@@H]3C[C@H](COS(N)(=O)=O)[C@@H](O)C3)n2)O1 (mixture of isomers) [Compound I-77, [(1R,2S,4R)-4-({5-[(1-{[(2R)-5,5-dimethyltetrahydrofuran-2-yl]methyl}-1H-pyrazol-3-yl)carbonyl]pyrimidin-4-yl}amino)-2-hydroxycyclopentyl]methyl sulfamate and [(1R,2S,4R)-4-({5-[(1-{[(2S)-5,5-dimethyltetrahydrofuran-2-yl]methyl}-1H-pyrazol-3-yl)carbonyl]pyrimidin-4-yl}amino)-2-hydroxycyclopentyl]methyl sulfamate] | 100 to 1000 nM | 51% |  |
| CC1(C)CCC(Cn2ccc(C(=O)c3cncnc3N[C@@H]3C[C@H](COS(N)(=O)=O)[C@@H](O)[C@@H]3F)c2)O1 (mixture of isomers) [Compound I-250, [(1R,2R,3R,4R)-4-({5-[(1-{[(2R)-5,5-dimethyltetrahydrofuran-2-yl]methyl}-1H-pyrrol-3-yl)carbonyl]pyrimidin-4-yl}amino)-3-fluoro-2-hydroxycyclopentyl]methyl sulfamate and [(1R,2R,3R,4R)-4-({5-[(1-{[(2S)-5,5-dimethyltetrahydrofuran-2-yl]methyl}-1H-pyrrol-3-yl)carbonyl]pyrimidin-4-yl}amino)-3-fluoro-2-hydroxycyclopentyl]methyl sulfamate] | 10 to 100 nM | 86% |  |
| NS(=O)(=O)OC[C@H]1C[C@@H](Nc2ncncc2C(=O)c2ccn(CC3CCCO3)n2)C[C@@H]1O (mixture of isomers) [Compound I-293, [(1R,2S,4R)-2-hydroxy-4-{[5-({1-[(2R)-tetrahydrofuran-2-ylmethyl]-1H-pyrazol-3-yl}carbonyl)pyrimidin-4-yl]amino}cyclopentyl]methyl sulfamate and [(1R,2S,4R)-2-hydroxy-4-{[5-({1-[(2S)-tetrahydrofuran-2-ylmethyl]-1H-pyrazol-3-yl}carbonyl)pyrimidin-4-yl]amino}cyclopentyl]methyl sulfamate] | 100 to 1000 nM | 38% |  |
| NS(=O)(=O)OC[C@H]1C[C@@H](Nc2ncncc2C(=O)c2ccn(C3C=CCCC3)n2)C[C@@H]1O (mixture of isomers) [Compound I-302, [(1R,2S,4R)-4-{[5-({1-[(1R)-cyclohex-2-en-1-yl]-1H-pyrazol-3-yl}carbonyl)pyrimidin-4-yl]amino}-2-hydroxycyclopentyl]methyl sulfamate and [(1R,2S,4R)-4-{[5-({1-[(1S)-cyclohex-2-en-1-yl]-1H-pyrazol-3-yl}carbonyl)pyrimidin-4-yl]amino}-2-hydroxycyclopentyl]methyl sulfamate] | 100 to 1000 nM | 34% |  |
| NS(=O)(=O)OC[C@H]1C[C@@H](Nc2ncncc2C(=O)c2ccn(CC3CCOC3)n2)C[C@@H]1O (mixture of isomers) [Compound I-332, [(1R,2S,4R)-2-hydroxy-4-{[5-({1-[(3R)-tetrahydrofuran-3-ylmethyl]-1H-pyrazol-3-yl}carbonyl)pyrimidin-4-yl]amino}cyclopentyl]methyl sulfamate and [(1R,2S,4R)-2-hydroxy-4-{[5-({1-[(3S)-tetrahydrofuran-3-ylmethyl]-1H-pyrazol-3-yl}carbonyl)pyrimidin-4-yl]amino}cyclopentyl]methyl sulfamate] | 100 to 1000 nM | 16% |  |
| NS(=O)(=O)OC[C@H]1C[C@@H](Nc2ncncc2C(=O)c2ccn(CC3CC3c3ccccc3)c2)C[C@@H]1O (mixture of isomers) [Compound I-339, [(1R,2S,4R)-2-hydroxy-4-{[5-({1-[(1S,2S)-(2-phenylcyclopropyl)methyl]-1H-pyrrol-3-yl}carbonyl)pyrimidin-4-yl]amino}cyclopentyl]methyl sulfamate and [(1R,2S,4R)-2-hydroxy-4-{[5-({1-[(1R,2R)-(2-phenylcyclopropyl)methyl]-1H-pyrrol-3-yl}carbonyl)pyrimidin-4-yl]amino}cyclopentyl]methyl sulfamate] | < 10 nM | 93% |  |
| COC(C)c1cc(C(=O)c2cncnc2N[C@@H]2C[C@H](COS(N)(=O)=O)[C@@H](O)C2)nn1Cc1cccc(Br)c1 (mixture of isomers) [Compound I-369, [(1R,2S,4R)-4-{[5-({1-(3-bromobenzyl)-5-[(1S)-1-methoxyethyl]-1H-pyrazol-3-yl}carbonyl)pyrimidin 4-yl]amino)-2-hydroxycyclopentyl]methyl sulfamate and [(1R,2S,4R)-4-{[5-({1-(3-bromobenzyl)-5-[(1R)-1-methoxyethyl]-1H-pyrazol-3-yl}carbonyl)pyrimidin-4-yl]amino}-2-hydroxycyclopentyl]methyl sulfamate] | < 10 nM | 98% |  |
| NS(=O)(=O)OC[C@H]1C[C@@H](Nc2ncncc2C(=O)c2ccn(CC3CC3c3ccccc3)c2)[C@@H](F)[C@@H]1O (single isomer, unassigned) [Compound I-9, [(1R,2R,3R,4R)-3-fluoro-2-hydroxy-4-{[5-({1-[(1R,2R)-(2-phenylcyclopropyl)methyl]-1H-pyrrol-3-yl}carbonyl)pyrimidin-4-yl]amino}cyclopentyl]methyl sulfamate or [(1R,2R,3R,4R)-3-fluoro-2-hydroxy-4-{[5-({1-[(1S,2S)-(2-phenylcyclopropyl)methyl]-1H-pyrrol-3-yl}carbonyl)pyrimidin-4-yl]amino}cyclopentyl]methyl sulfamate] | 10 to 100 nM |  | 91% |
| C#Cc1cccc([C@@H](C)n2ccc(C(=O)c3cncnc3N[C@@H]3C[C@H](COS(N)(=O)=O)[C@@H](O)C3)n2)c1 (single isomer, unassigned) [Compound I-10] | 10 to 100 nM | 61% |  |
| CC(c1cccc(Br)n1)n1ccc(C(=O)c2cncnc2N[C@@H]2C[C@H](COS(N)(=O)=O)[C@@H](O)C2)n1 (single isomer, unassigned) [Compound I-65, [(1R,2S,4R)-4-{[5-({1-[(1S)-1-(6-bromopyridin-2-yl)ethyl]-1H-pyrazol-3-yl}carbonyl)pyrimidin-4-yl]amino}-2-hydroxycyclopentyl]methyl sulfamate or [(1R,2S,4R)-4-{[5-({1-[(1R)-1-(6-bromopyridin-2-yl)ethyl]-1H-pyrazol-3-yl}carbonyl)pyrimidin-4-yl]amino}-2-hydroxycyclopentyl]methyl sulfamate] | < 10 nM |  | 99% |
| CC(c1ccc(Cl)o1)n1ccc(C(=O)c2cncnc2N[C@@H]2C[C@H](COS(N)(=O)=O)[C@@H](O)C2)n1 (single isomer, unassigned) [Compound I-79, [(1R,2S,4R)-4-{[5-({1-[(1S)-1-(5-chloro-2-furyl)ethyl]-1H-pyrazol-3-yl}carbonyl)pyrimidin-4-yl]amino}-2-hydroxycyclopentyl]methyl sulfamate or [(1R,2S,4R)-4-{[5-({1-[(1R)-1-(5-chloro-2-furyl)ethyl]-1H-pyrazol-3-yl}carbonyl)pyrimidin-4-yl]amino}-2-hydroxycyclopentyl]methyl sulfamate] | < 10 nM |  | 98% |
